Laboratory results from PMC4060991, “The Human Orphan Nuclear Receptor Tailless (TLX, NR2E1) Is Druggable” (PLoS ONE, 2014).
Where two headings read alike, the source gives them in different places.

Key:
GAL4 DBD vector = assay: Luciferase assay in HeLa cells transfected with empty GAL4 DBD vector (absence of TLX); format: cell-based, human; conditions: different concentrations, 16 h
Method: (§1) HeLa cells were maintained in D-MEM High Glucose (Hyclone) supplemented with 10% charcoal:dextran stripped FBS (Hyclone) and 1x Pen/Strep antibiotics (Life Technologies). Transient transfections were carried out in batches on 100,000 cells seeded into 12-well tissue culture plates. The co-transfections were performed using the TransFectin Lipid reagent (Bio-Rad) with approximately 10 ng/well of Gal4 DBD (gift from Phuong Nguyen, Fletterick Laboratory, UCSF) or GAL4-TLX LBD, 10 ng/well of renilla luciferase gene (Promega) for internal control and 200 ng/well of pGL4.35 reporter gene (containing an upstream Gal4 Upstream Activator Sequence and the luciferase gene, Promega). Approximately, 3 h after transfections, cells were treated with compounds of interest at different concentrations, or solvent (DMSO, 0.1%) in DMEM containing no fetal bovine serum or antibiotics. After a 16-h incubation, luciferase activities were assessed using Dual Luciferase assay reagent (Promega). Luciferase activities were calculated by normalizing firefly luciferase to renilla luciferase signal. […] Cells transfected with Gal4 DBD vector served as a control for TLX independent effects.

human PNR (NR2E3) LBD = molecular target: T1, human PNR (NR2E3) LBD (Homo sapiens, UniProt Q9Y5X4); assay: GAL4-PNR LBD luciferase transactivation assay in HeLa cells; format: cell-based; conditions: 10 µM, 24 h
T1 construct: expressed in transfected cells; host or cells: HeLa
T1 sequence (Q9Y5X4 192-410): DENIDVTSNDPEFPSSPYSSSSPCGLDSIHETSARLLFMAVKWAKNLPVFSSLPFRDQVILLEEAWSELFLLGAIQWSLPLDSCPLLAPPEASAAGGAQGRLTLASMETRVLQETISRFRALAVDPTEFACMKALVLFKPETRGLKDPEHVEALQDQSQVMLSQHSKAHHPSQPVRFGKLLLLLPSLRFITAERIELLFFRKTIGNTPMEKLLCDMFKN
Method: For the transactivation assays involving human PNR (Photoreceptor cell-specific Nuclear Receptor, NR2E3) LBD, we used an already described pBIND-PNR LBD (residues 192–410, [37]) plasmid (gift from Dr. H. Eric Xu, Van Andel Institute). The transient co-transfections of HeLa cells with vectors encoding either Gal4DBD or pBIND-PNR LBD fusion (both at 50 ng/well), pGL4.35 reporter gene (200 ng/well) and renilla luciferase gene (50 ng/well, internal control) were performed in batches of 10^5 cells seeded into 12-well tissue culture plates. Twenty-four hours after the transfections, cells were treated with either DMSO (0.1%, control) or compounds ccrp1, ccrp2 or ccrp3 at 10 µM. Following 24 h incubation, luciferase activities in each well were assessed as described above. Cells transfected with Gal4 DBD vector served as a control for PNR independent effects.

ERβ LBD = ERβ LBD (Homo sapiens, UniProt Q92731); assay: DSF on purified ERβ LBD; conditions: compound 500 µM; unliganded Tm ∼51°C
ERβ LBD, sequence (Q92731 261-530): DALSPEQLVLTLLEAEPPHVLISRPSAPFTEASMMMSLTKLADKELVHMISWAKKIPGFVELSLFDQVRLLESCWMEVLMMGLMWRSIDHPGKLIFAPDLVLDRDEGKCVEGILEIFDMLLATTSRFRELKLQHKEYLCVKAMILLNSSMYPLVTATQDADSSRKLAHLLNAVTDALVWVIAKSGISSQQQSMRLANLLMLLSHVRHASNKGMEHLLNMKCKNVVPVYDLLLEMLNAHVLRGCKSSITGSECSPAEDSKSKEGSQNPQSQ
Method: Protein stability was assessed with DSF in absence or presence of test compounds in a LightCycler 480 II qRT-PCR Detection System (Roche) in 384-well format. Sypro-Orange dye (Life Technologies) was used to monitor fluorescence, with filters for fluorescence excitation at 465 nm and for fluorescence emission at 610 nm. […] Tested sample mixtures were heated from 25°C to 96°C at a rate of 0.05°C/sec with 11 acquisitions per °C. Each compound was tested in duplicates. The melting temperature (Tm) for each sample was deduced by the ThermoQ Analytical software (HMRI) from the first derivative of the corresponding denaturation curve generated by the LightCycler 480 software. The same protocol was applied to investigate the stability of purified ERβ and LXRβ LBDs in presence or absence of the compounds. The optimal final concentrations for these experiments were 0.02 mg/mL for ERβ LBD and 0.20 mg/mL for LXRβ LBD. All DSF-based analyses were performed using freshly purified protein.

TLX LBD [1] = molecular target: T2, TLX LBD (Homo sapiens, UniProt Q9Y466); assay: GAL4-TLX LBD luciferase transactivation assay in HeLa cells; format: cell-based; parameters: expressed in transfected cells; host or cells: HeLa
T2 sequence (Q9Y466 187-385): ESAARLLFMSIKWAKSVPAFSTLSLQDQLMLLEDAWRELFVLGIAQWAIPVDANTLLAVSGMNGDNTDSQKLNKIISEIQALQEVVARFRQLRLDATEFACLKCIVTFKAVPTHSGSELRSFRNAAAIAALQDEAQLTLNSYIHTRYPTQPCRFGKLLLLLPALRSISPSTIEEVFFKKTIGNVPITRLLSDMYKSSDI
Method: The luciferase reporter pGL4.35 [luc2P/9XGAL4UAS/Hygro] vector was obtained from Promega. pBIND-TLX LBD was fully sequenced (ACGT, Inc.).
as §1
All measurements were performed in triplicates and repeated in three independent experiments. Prism 6 was used to calculate EC50.

TLX LBD [2] = molecular target: T2, TLX LBD; assay: Differential scanning fluorimetry (DSF) on purified TLX LBD;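 further: thermal unfolding followed by Sypro-Orange fluorescence (excitation 465 nm, emission 610 nm) in 384-well plates, Tm taken from the first derivative of the denaturation curve, duplicate samples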; format: binding; parameters: cDNA fragments encoding human TLX LBD (a.a. 187–385) were cloned; His6 followed by TEV protease cleavage site (N); made in house; host or cells: E. coli BL21 (DE3) star; conditions: compound 500 µM; reference Tm 58.8±0.3°C with 5% DMSO
Method: Protein stability was assessed with DSF in absence or presence of test compounds in a LightCycler 480 II qRT-PCR Detection System (Roche) in 384-well format. Sypro-Orange dye (Life Technologies) was used to monitor fluorescence, with filters for fluorescence excitation at 465 nm and for fluorescence emission at 610 nm. […] Each compound was tested in duplicates. The melting temperature (Tm) for each sample was deduced by the ThermoQ Analytical software (HMRI) from the first derivative of the corresponding denaturation curve generated by the LightCycler 480 software. […] All DSF-based analyses were performed using freshly purified protein.

TLX LBD [3] = molecular target: T2, TLX LBD; assay: Biolayer interferometry (Octet Red 384) direct binding to immobilized TLX LBD; parameters: cDNA fragments encoding human TLX LBD (a.a. 187–385) were cloned; His6 followed by TEV protease cleavage site (N); made in house; host or cells: E. coli BL21 (DE3) star; conditions: for association/dissociation behaviour (sensorgram): dose-response curves; for maximum binding response (plateau): highest concentrations tested, expected maximum 0.08–0.1 nm for 1:1
Method: Cloning was accomplished with a standard double digest cloning protocol after PCR according to manufacturer’s protocol (Avidity), and the plasmid was sequenced (ACGT, Inc). […] A duplicate set of sensors which serve as reference surfaces were incubated in […] solution of blocked biotinylated Streptavidin protein (Scripps Laboratories) to a loading signal of about 5.5 nm as described by manufacturer’s protocol (FortéBio). Binding of the individual compounds (100 µM) or 1% DMSO (solvent control) was measured over immobilized TLX LBD target biosensors and reference surfaces. Corrected binding response sensorgrams were recorded and analyzed. Data analysis on the FortéBio Octet RED instrument was performed using the FortéBio data analysis software. The analysis accounts for non-specific binding, background, and signal drift and minimizes well based and sensor variability.
The corresponding equilibrium dissociation constants (KD) were determined using steady state analysis of compounds binding affinities, assuming 1∶1 ligand - protein stoichiometry.

[4] = HeLa cells, 16 h treatment, read-out: EC50 for enhancement of TLX transcriptional repression

Row | Structure (SMILES) | effect on luciferase activities in absence of TLX (GAL4 DBD vector) | effect on PNR transcriptional activity (human PNR (NR2E3) LBD) | melting temperature shift of ERβ LBD (ERβ LBD) | EC50 (TLX LBD [1]; [4]) [nM] | melting temperature (Tm) of TLX LBD in presence of compound (TLX LBD [2]) [°C] | association/dissociation behaviour (sensorgram) (TLX LBD [3]) | maximum binding response (plateau) (TLX LBD [3]) | EC50 (TLX LBD [1]) [nM]
1 | CC(C)c1c(CN(C)C(C)Cc2ccccc2)n(C)n(-c2ccccc2)c1=O (stereo not drawn) [ccrp1, Famprofazone] | do not affect the luciferase activities | None of the compounds affected PNR transcriptional activity | Neither compound demonstrates any significant effect on the melting temperatures | 9200 ± 1000 | 53.04±0.3 | quick association and dissociation | 0.04 nm | –
2 | Cc1cc(C(=O)N2CCN(C(c3ccccc3)c3ccccc3)CC2)nn1C [ccrp2, 1-(1,5-dimethylpyrazole-3-carbonyl)-4-(diphenylmethyl)piperazine] | do not affect the luciferase activities | None of the compounds affected PNR transcriptional activity | Neither compound demonstrates any significant effect on the melting temperatures | – | 52.49±1.1 | quick association and dissociation | 0.06–0.1 nm | 1000 ± 300
3 | CC(=O)[C@H]1CC[C@H]2[C@@H]3C=CC4=CC(=O)CC[C@@]4(C)[C@@H]3CC[C@]12C [ccrp3, Dydrogesterone] | do not affect the luciferase activities | None of the compounds affected PNR transcriptional activity | Neither compound demonstrates any significant effect on the melting temperatures | 250 ± 100 | 55.78±0.3 | quick association and dissociation | 0.06–0.1 nm | –
